Results: ChEMBL document CHEMBL4334551, “Discovery of a New Sulfonamide Hepatitis B Capsid Assembly Modulator” (ACS Med Chem Lett, 2020)
Blank lines part the entries; values can stand above or below the molecule they belong to.

Assays:
[1] = target: T1, Voltage-gated inwardly rectifying potassium channel KCNH2 (Homo sapiens, UniProt Q12809); assay: Inhibition of human ERG expressed in human HEK293 cells by patch clamp assay; format: cell-based
Hepatitis B virus [2] = assay: Potency index, ratio of EC50 of NVR3-778 to EC50 of compound for antiviral activity in HBV infected in human HepAD38 cells assessed as reduction in viral replication incubated for 65 hrs by RT-PCR analysis; format: functional
Hepatitis B virus [3] = assay: Antiviral activity in HBV infected in human HepAD38 cells assessed as reduction in viral replication incubated for 65 hrs by RT-PCR analysis; format: functional, organism-based; conditions: HePAD38, 65 h
[4] = Cytotoxicity against human HepAD38 cells assessed as reduction in cell viability incubated for 65 hrs by EZ-Cytox cell viability assay; format: cell-based
Cytochrome P450 1A2 = target: T2, Cytochrome P450 1A2 (Homo sapiens, UniProt P05177); assay: Inhibition of human CYP1A2 using phenacetin as substrate by LC/MS/MS analysis; format: ADME
T2 sequence (P05177 whole entry): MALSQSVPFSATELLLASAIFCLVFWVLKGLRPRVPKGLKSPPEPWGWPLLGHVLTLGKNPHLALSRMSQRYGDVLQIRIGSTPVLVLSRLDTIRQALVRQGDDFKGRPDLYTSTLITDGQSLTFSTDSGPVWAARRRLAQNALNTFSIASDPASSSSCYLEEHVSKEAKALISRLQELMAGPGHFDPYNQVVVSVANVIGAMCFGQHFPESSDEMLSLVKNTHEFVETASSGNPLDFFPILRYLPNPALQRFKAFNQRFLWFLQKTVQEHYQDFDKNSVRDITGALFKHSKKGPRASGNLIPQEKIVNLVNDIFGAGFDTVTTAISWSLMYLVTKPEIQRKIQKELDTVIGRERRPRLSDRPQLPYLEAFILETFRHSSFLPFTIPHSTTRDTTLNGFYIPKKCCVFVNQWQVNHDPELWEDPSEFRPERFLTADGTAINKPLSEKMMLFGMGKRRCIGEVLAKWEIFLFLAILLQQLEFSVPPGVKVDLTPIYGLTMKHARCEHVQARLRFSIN

Cytochrome P450 2C9 = Cytochrome P450 2C9 (Homo sapiens, UniProt P11712); assay: Inhibition of human CYP2C9 using tolubutamide as substrate by LC/MS/MS analysis; format: ADME
Cytochrome P450 2C19 = Cytochrome P450 2C19 (Homo sapiens, UniProt P33261); assay: Inhibition of human CYP2C19 using S-mephenytoin as substrate by LC/MS/MS analysis; format: ADME
Cytochrome P450 2D6 = Cytochrome P450 2D6 (Homo sapiens, UniProt P10635); assay: Inhibition of human CYP2D6 using dextromethorphan as substrate by LC/MS/MS analysis; format: ADME
Cytochrome P450 3A4 = Cytochrome P450 3A4 (Homo sapiens, UniProt P08684); assay: Inhibition of human CYP3A4 using […] as substrate by LC/MS/MS analysis; format: ADME
[5] = target: T1, Voltage-gated inwardly rectifying potassium channel KCNH2; assay: Inhibition of human ERG by competitive fluorescence polarization assay
[6] = Stability in rat liver microsomes assessed as compound remaining at 1 uM incubated for 30 mins by LC/MS/MS analysis; format: ADME, Microsome; conditions: read-out: Stability
[7] = Stability in human liver microsomes assessed as compound remaining at 1 uM incubated for 30 mins by LC/MS/MS analysis; format: ADME, Microsome; conditions: read-out: Stability
[8] = Stability in rat liver microsomes assessed as half life at 1 uM incubated for 30 mins by LC/MS/MS analysis; format: ADME, Microsome
[9] = Stability in rat plasma assessed as compound remaining at 5 uM incubated for 4 hrs by LC/MS/MS analysis; format: ADME, cell-free; conditions: read-out: Stability
[10] = Stability in human plasma assessed as compound remaining at 5 uM incubated for 4 hrs by LC/MS/MS analysis; format: ADME, cell-free; conditions: read-out: Stability
[11] = Protein binding in rat plasma assessed as compound remaining at 5 uM incubated for 4 hrs by LC/MS/MS analysis; format: ADME, cell-free; conditions: read-out: PPB
[12] = Protein binding in human plasma assessed as compound remaining at 5 uM incubated for 4 hrs by LC/MS/MS analysis; format: ADME, cell-free; conditions: read-out: PPB (converted)
[13] = Half life in Sprague-Dawley rat at 5 mg/kg, iv measured upto 24 hrs by LC/MS/MS analysis; format: ADME, organism-based; conditions: in vivo
[14] = AUClast in Sprague-Dawley rat at 5 mg/kg, iv measured upto 24 hrs by LC/MS/MS analysis; format: ADME, organism-based; set-up: time < 24 hr, dose 5 mg/kg, route intravenous; conditions: in vivo
[15] = Clearance in Sprague-Dawley rat at 5 mg/kg, iv measured upto 24 hrs by LC/MS/MS analysis; format: ADME, organism-based; conditions: in vivo
[16] = Volume of distribution at steady state in Sprague-Dawley rat at 5 mg/kg, iv measured upto 24 hrs by LC/MS/MS analysis; format: ADME, organism-based; conditions: in vivo, read-out: Vdss
[17] = Tmax in Sprague-Dawley rat at 5 mg/kg, po measured upto 24 hrs by LC/MS/MS analysis; format: ADME, organism-based; conditions: in vivo
[18] = Cmax in Sprague-Dawley rat at 5 mg/kg, po measured upto 24 hrs by LC/MS/MS analysis; format: ADME, organism-based; set-up: dose 5 mg/kg, route oral; conditions: in vivo
[19] = Half life in Sprague-Dawley rat at 5 mg/kg, po measured upto 24 hrs by LC/MS/MS analysis; format: ADME, organism-based; conditions: in vivo
[20] = AUClast in Sprague-Dawley rat at 5 mg/kg, po measured upto 24 hrs by LC/MS/MS analysis; format: ADME, organism-based; set-up: dose 5 mg/kg, time < 24 hr, route oral; conditions: in vivo
[21] = AUC in Sprague-Dawley rat at 5 mg/kg, po measured upto 24 hrs by LC/MS/MS analysis; format: ADME, organism-based; set-up: dose 5 mg/kg, time < 24 hr, route oral; conditions: in vivo
[22] = Oral bioavailability in Sprague-Dawley rat at 5 mg/kg measured upto 24 hrs by LC/MS/MS analysis; format: ADME, organism-based; conditions: in vivo
[23] = AUC in Sprague-Dawley rat at 5 mg/kg, iv measured upto 24 hrs by LC/MS/MS analysis; format: ADME, organism-based; set-up: dose 5 mg/kg, time < 24 hr, route intravenous; conditions: in vivo
Hepatitis B virus [24] = assay: Antiviral activity in HBV infected in human HepG2.2.15 cells assessed as reduction in viral replication incubated for 5 days by qPCR analysis; format: functional, organism-based; conditions: HepG2.2.15, 120 h

T1 sequence (Q12809 whole entry): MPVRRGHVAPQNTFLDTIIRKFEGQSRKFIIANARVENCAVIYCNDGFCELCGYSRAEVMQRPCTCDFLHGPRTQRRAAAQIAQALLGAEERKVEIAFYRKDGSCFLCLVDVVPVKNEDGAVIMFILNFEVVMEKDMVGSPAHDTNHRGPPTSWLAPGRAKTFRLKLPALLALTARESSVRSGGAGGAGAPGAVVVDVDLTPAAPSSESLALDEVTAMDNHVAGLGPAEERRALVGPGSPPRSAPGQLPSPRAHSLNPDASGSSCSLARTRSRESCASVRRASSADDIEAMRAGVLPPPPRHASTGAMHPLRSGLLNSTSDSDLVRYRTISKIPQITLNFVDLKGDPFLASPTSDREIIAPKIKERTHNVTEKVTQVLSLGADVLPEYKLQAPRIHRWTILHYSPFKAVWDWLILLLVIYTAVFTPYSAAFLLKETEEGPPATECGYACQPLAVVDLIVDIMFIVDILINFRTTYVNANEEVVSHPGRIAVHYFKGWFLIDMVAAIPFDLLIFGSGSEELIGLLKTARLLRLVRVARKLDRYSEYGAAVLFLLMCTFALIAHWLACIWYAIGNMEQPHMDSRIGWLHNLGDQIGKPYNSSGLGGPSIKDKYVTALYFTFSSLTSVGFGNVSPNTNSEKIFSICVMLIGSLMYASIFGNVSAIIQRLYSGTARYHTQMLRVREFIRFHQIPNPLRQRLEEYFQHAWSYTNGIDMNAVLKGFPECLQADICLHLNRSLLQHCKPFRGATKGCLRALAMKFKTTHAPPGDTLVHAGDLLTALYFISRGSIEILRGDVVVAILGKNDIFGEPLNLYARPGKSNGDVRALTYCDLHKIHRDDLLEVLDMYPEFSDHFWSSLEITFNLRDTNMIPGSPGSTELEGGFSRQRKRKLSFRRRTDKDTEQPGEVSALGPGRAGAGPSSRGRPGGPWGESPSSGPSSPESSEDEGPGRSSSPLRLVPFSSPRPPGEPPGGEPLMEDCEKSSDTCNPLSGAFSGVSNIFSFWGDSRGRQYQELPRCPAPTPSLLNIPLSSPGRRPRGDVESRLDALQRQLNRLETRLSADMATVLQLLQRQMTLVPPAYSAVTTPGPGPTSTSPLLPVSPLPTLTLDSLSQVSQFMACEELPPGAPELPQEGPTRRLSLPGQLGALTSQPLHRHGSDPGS
Sequence of Cytochrome P450 2C9 (P11712 whole entry): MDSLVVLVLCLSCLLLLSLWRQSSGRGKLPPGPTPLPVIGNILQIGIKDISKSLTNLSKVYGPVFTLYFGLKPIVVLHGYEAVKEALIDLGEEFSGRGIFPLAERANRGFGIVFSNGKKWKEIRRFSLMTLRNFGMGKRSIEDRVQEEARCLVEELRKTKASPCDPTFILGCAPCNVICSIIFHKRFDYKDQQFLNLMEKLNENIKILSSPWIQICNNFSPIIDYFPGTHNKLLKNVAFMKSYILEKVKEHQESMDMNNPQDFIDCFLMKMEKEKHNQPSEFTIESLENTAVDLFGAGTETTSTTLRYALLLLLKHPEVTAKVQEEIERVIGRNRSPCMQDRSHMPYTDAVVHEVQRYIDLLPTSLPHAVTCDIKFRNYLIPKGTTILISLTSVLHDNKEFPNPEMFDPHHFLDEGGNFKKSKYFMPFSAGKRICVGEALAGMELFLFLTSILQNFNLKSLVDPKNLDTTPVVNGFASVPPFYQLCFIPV
Sequence of Cytochrome P450 3A4 (P08684 whole entry): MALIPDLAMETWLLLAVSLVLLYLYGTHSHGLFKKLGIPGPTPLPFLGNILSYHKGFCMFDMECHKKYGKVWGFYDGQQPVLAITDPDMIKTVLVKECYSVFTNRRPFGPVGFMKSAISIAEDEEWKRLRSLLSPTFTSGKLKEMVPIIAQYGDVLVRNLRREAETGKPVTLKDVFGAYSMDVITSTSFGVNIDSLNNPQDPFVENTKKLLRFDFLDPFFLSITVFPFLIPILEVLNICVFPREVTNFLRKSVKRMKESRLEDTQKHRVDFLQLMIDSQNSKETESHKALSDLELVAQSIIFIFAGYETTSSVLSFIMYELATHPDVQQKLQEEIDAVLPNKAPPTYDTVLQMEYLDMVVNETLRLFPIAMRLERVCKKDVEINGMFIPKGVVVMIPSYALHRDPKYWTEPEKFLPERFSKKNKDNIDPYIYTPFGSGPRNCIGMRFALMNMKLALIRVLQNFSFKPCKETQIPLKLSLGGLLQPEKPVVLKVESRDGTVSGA
Sequence of Cytochrome P450 2C19 (P33261 whole entry): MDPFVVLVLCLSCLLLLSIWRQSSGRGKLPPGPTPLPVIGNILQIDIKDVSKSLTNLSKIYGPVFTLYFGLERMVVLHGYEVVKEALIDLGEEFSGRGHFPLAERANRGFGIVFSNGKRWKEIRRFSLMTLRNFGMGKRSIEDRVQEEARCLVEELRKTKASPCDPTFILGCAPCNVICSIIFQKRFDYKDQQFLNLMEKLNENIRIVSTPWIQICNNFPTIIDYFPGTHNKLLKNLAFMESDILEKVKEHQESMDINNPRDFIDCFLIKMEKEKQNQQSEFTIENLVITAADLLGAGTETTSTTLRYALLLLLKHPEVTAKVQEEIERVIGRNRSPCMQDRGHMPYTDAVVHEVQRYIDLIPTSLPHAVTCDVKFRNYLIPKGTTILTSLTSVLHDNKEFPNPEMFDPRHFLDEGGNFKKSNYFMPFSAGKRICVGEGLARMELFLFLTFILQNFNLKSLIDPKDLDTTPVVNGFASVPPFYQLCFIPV
Sequence of Cytochrome P450 2D6 (P10635 whole entry): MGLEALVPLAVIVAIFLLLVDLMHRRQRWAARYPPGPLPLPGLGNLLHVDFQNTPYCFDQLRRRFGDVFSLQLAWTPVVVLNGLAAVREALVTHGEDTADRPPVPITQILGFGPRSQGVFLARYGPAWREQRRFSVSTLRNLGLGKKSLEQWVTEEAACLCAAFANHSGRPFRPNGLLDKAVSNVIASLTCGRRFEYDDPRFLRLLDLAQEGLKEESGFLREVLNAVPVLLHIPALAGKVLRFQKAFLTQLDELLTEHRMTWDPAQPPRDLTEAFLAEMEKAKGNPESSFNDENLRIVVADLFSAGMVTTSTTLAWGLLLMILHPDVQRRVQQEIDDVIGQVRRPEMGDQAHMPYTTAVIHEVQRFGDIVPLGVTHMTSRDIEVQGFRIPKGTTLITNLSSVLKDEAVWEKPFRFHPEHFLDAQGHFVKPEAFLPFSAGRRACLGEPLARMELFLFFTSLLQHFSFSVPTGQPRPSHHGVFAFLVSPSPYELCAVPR

SMILES: O=C(Nc1cc(F)c(F)c(F)c1)c1cc(S(=O)(=O)N2CCC(O)CC2)cc2cc[nH]c12
EC50 (Hepatitis B virus [3]): > 3.3 µM | CC50 at 65 h [4]: > 100 µM

SMILES: CN(C)c1ccc(S(=O)(=O)N2CCC(O)CC2)cc1C(=O)Nc1cc(F)c(F)c(F)c1
EC50 (Hepatitis B virus [3]): > 3.3 µM | CC50 at 65 h [4]: > 100 µM

SMILES: O=C(Nc1cc(F)c(F)c(F)c1)c1cc(S(=O)(=O)N2CCC(O)CC2)ccc1O
EC50 (Hepatitis B virus [3]): > 3.3 µM | CC50 at 65 h [4]: > 100 µM

SMILES: COc1ccc(S(=O)(=O)N2CCC(O)CC2)cc1C(=O)Nc1cc(F)c(F)c(F)c1
EC50 (Hepatitis B virus [3]): > 3.3 µM | CC50 at 65 h [4]: > 100 µM

SMILES: CNc1cc(F)c(S(=O)(=O)N2CCC(O)CC2)cc1C(=O)Nc1cc(F)c(F)c(F)c1
EC50 (Hepatitis B virus [3]): > 3.3 µM | CC50 at 65 h [4]: > 100 µM

Second part, led by results:

EC50 (Hepatitis B virus [3]): 0.044 µM | IC50 (Cytochrome P450 1A2): 81.1 µM | IC50 (Cytochrome P450 2C9): 17 µM | IC50 (Cytochrome P450 2C19): 23.1 µM | IC50 (Cytochrome P450 2D6): 32.6 µM | IC50 (Cytochrome P450 3A4): 27.8 µM | remaining at 0.5 h, 1 µM [6]: 49.2% | remaining at 0.5 h, 1 µM [7]: 50.2% | half-life at 1 µM [8]: 0.481 h | remaining at 4 h, 5 µM [9]: 90.1% | remaining at 4 h, 5 µM [10]: 71.9% | remaining at 4 h, 5 µM [11]: 98.7% | fraction unbound at 4 h, 5 µM [12]: 0.0073 | half-life [13]: 6.67 h | AUC(0-t) at 24 h [14]: 6300 ng·h/mL | clearance [15]: 13.5 mL/min/kg | Vd [16]: 2.95 L/kg | Tmax [17]: 1.58 h | Cmax [18]: 940 ng/mL | half-life [19]: 3.44 h | AUC(0-t) at 24 h [20]: 5050 ng·h/mL | AUC at 24 h [21]: 5090 ng·h/mL | bioavailability [22]: 80.2% | AUC at 24 h [23]: 6420 ng·h/mL
SMILES: Nc1cc(F)c(S(=O)(=O)N2CCC(O)CC2)cc1C(=O)Nc1cc(F)c(F)c(F)c1
IC50 [1]: 8.78 µM | Ratio EC50 (Hepatitis B virus [2]): 9 | CC50 at 65 h [4]: 48.9 µM | IC50 [5]: 10.9 µM

EC50 (Hepatitis B virus [3]): > 3.3 µM
SMILES: O=C(Nc1cc(F)c(F)c(F)c1)c1cc(Br)c(F)c(S(=O)(=O)N2CCC(O)CC2)c1
CC50 at 65 h [4]: > 100 µM

EC50 (Hepatitis B virus [3]): 0.97 µM
SMILES: O=C(Nc1cc(F)c(F)c(F)c1)c1cccc(S(=O)(=O)N2CCC(O)CC2)c1
CC50 at 65 h [4]: 77.7 µM

EC50 (Hepatitis B virus [3]): 0.24 µM
SMILES: Nc1ccc(S(=O)(=O)N2CCC(O)CC2)cc1C(=O)Nc1cc(F)c(F)c(F)c1
CC50 at 65 h [4]: 76.9 µM

EC50 (Hepatitis B virus [3]): 0.28 µM
SMILES: Nc1cc(C(=O)Nc2cc(F)c(F)c(F)c2)cc(S(=O)(=O)N2CCC(O)CC2)c1F
CC50 at 65 h [4]: 87.9 µM

EC50 (Hepatitis B virus [3]): 0.72 µM
SMILES: CSc1ccc(S(=O)(=O)N2CCC(O)CC2)cc1C(=O)Nc1cc(F)c(F)c(F)c1
CC50 at 65 h [4]: > 100 µM

EC50 (Hepatitis B virus [24]): 0.0064 µM | EC50 (Hepatitis B virus [3]): 0.36 µM
SMILES: O=C(Nc1cc(F)c(F)c(F)c1)c1ccc(F)c(S(=O)(=O)N2CCC(O)CC2)c1
CC50 at 65 h [4]: 57.7 µM
